From US11638427B2, “Methods and compositions for altering secondary metabolites in plants” (Impello Biosciences, Inc, priority 2020, dated 2023) come the findings set out here.

Series [1] deals with Cladosporium cladosporioides. The series is described as follows: Mold growth on jasmonate-infused plates, mold isolated from tomato. Type of series: cell-based. The note with it: various concentrations in plates. As for the experimental part:
(§1) MDJ (TCI, CAS No.: 24851-98-7) and CJ were infused into potato dextrose agar (PDA, VWR Cat No.: 90003-494) petri dishes (100×15 mm VWR, Cat No: 25384-094) at concentrations ranging from 1 mM, 4.25 mM, and 10 mM. Each treatment was prepared using a technical grade stock solution of pure chemical (CJ or MDJ) diluted with TWEEN®-20 (VWR, CAS No.: […]). Culturable oyster mushroom and seedling mold served to create fungal mycelial plugs using a sterile 1 mL pipette tip (Eppendorf, Cat No.: 022491458) held upside down. The tips were used to make circle excisions (i.e., fungal plugs) from a mycelial mat grown on PDA with no biochemical infusions. Fungal pugs were then transferred to PDA infused with varying concentrations of CJ or MDJ, and control plates (no CJ or MDJ infusion) to monitor fungal growth at room temperature over time.
(§2) Based on the above results in Cannabis spp., additional fungi from various crops was sampled and tested. Plates comprising various concentrations of MDJ or MJ were prepared as described above.

Series [2] deals with hemp clones cv. Cherry in the vegetative stage. Nature of the series: Root drench of MeJA or MDJ, phytotoxicity. Type of series: in vivo, Cannabis spp. As to conditions: for plants deceased in 72 hours: 250 mL, n=4; for phytotoxicity to plants in the vegetative stage: root drench, concentrations above 10 mM, within 72 hours. As for the experimental part: To investigate if higher concentrations of jasmonate elicitors would be tolerated in cannabis by root drench, four different concentrations, [7.5 mM], [10 mM], [15 mM] and [20 mM] were applied to hemp clones (n=4 per treatment group, cv.: Cherry, CBDRx) in the vegetative stage. Treatment concentrations were prepared from methyl dihydrojasmonate (MDJ, TCI, CAS No.: 24851-98-7) and methyl Jasmonate (MeJA, TCI, CAS No.: […]) with 1% TWEEN®-20 added (VWR, CAS No.: […]).
The roots of each clone in each treatment group were treated with 250 mL of each compound once per week. Plants were grown under a total of 12 Boost (Thrive Agritech, NY) 130-watt LED lights set to 18L: 6D photoperiod during the vegetative phase (2 weeks) or until phytotoxicity observed.

The test system of series [3] is Sunrise Genetics' F2 variety. Nature of the series: MeJA vs MDJ weekly foliar spray, terpene analysis. The note with it: for eucalyptol / guaiol / α-bisabolol: 4.25 mM or 7.5 mM MDJ, or 7.5 mM MeJA; for D-Limonene / Linalool / cis-B-ocimene: all applications (4.25 mM and 7.5 mM). Type of series: in vivo, Cannabis spp. As for the experimental part: (§3) To directly compare the efficacy of MeJA and MDJ, MeJA and MDJ were applied as a foliar spray once per week at either 4.25 mM or 7.5 mM concentrations to two high-CBD cannabis varieties. Clones from CBDRx Cherry variety and Sunrise Genetics' F2 variety were transplanted into 1-gallon pots with Red's soil and put into vegetative light cycle (18L/6D) on 4/12/21. All plants had two weeks in vegetative light cycle and were moved to flowering light cycle (12L/12D) on 4/26/21 for six weeks. Foliar applications started in week three of growth, [at flower initiation?]. Plants were then moved to a flowering light cycle. Each treatment group comprises three plants, including the control. Throughout the growing period, all plants were watered with JACK'S NUTRIENTS®. Plants were harvested on 6/7/21.
(§4) Treatments: Each concentration was prepared from a one molar stock solution with TWEEN®-20. Sprays were prepared weekly and diluted with RO water. Each plant was sprayed till dripping, each receiving approximately 75-100 ml.

Another series relates to CBDRx Cherry variety. The series is described as follows: MeJA vs MDJ weekly foliar spray, terpene analysis. Type of series: in vivo, Cannabis spp. As to conditions: 4.25 mM or 7.5 mM weekly foliar spray. Here is the method: as §3, §4
The test system of another series is seedling mold. The series is described as follows: Fungal plug growth on jasmonate-infused PDA plates. The note with it: for seedling mold growth: 1 mM, 4.25 mM, 10 mM in PDA, 72 hours post inoculation. It is filed as cell-based, Trichoderma ghanense. As for the experimental part: as §1
To compare the efficacy of MDJ and MeJA at inhibiting the same seedling mold as used in the experiment above, a second experiment was conducted using PDA plates infused with either MDJ or MeJA at different concentrations. All plates were generated and inoculated as described above and incubated at room temperature under identical conditions. Shown in FIGS. 9A-9C are plates of seedling mold 72 hours post fungal inoculation. Control plates are shown on the top row, followed by concentrations of MeJA (left) and MDJ (right) in duplicate at 1 mM (FIG. 9A), 4.25 mM (FIG. 9B), and 10 mM (FIG. 9C). […] Subsequent sequence analysis identified the “seedling mold” as Trichoderma ghanense.

The next series has as its system grey mold. Nature of the series: Fungal plug growth on jasmonate-infused PDA plates. As to conditions: for grey mold growth: 1 mM, 4.25 mM, 10 mM in PDA, 72 hours post inoculation. Type of series: cell-based, Rhizopus stolonifera. As for the experimental part:
as §1
A grey mold was also tested (FIGS. 10A-10D). All plates were generated and inoculated as described above and incubated at room temperature under identical conditions. Shown in […] are plates of grey mold 72 hours post fungal inoculation. Control plates are shown on the top row, followed by concentrations of MeJA (left) and MDJ (right) in duplicate at […] (FIG. 10A), 4.25 mM (FIG. 10B), and 10 mM (FIG. 10C). […] While it was initially hypothesized that the grey mod was a species of Botrytis, subsequent sequence analysis identified the mold as Rhizopus stolonifera.

Another series has as its system Penicillium spp. The series is described as follows: Mold growth on jasmonate-infused plates, mold isolated from orange. It is filed as cell-based. The note with it: various concentrations in plates. Here is the method: as §1, §2
Setting [4] is: 4.25 mM or 7.5 mM weekly foliar spray.
Setting [5] is: at the 1 mM concentration, 72 hours.

With `CCCCCC1C(=O)CCC1CC(=O)OC` (stereo not shown) [MDJ, methyl dihydrojasmonate], the “growth of mold isolated from tomato” value in series [1] is “effective at preventing the growth”. In addition, the “plants deceased in 72 hours” value in series [2] (root drench 10 mM) is given as “three out of four”. Besides, the “plants deceased in 72 hours” value in series [2] (root drench 15 mM) is “all four”. Besides, in series [2] (root drench 20 mM), the “plants deceased in 72 hours” value is “all four”. For the same molecule, in series [2], the “phytotoxicity to plants in the vegetative stage” value was “phytotoxic”. Moreover, in series [3], the eucalyptol result is “Significant increases”, the guaiol result was “Significant increases”, the α-bisabolol result was “Significant increases” and the D-Limonene result is reported as “significantly decreased”. Besides, in series [3], the Linalool result was “significantly increased” and the cis-B-ocimene result was “significantly decreased”. In series [3] (setting [4]), the camphene entry is given as “significantly lowered”, the p-pinene entry was “significantly lowered”, the total terpene content entry is “significantly lowered” and the α-pinene result is listed as “significantly lowered”. Besides, in series [3] (setting [4]), the β-myrcene content result is on record as “significantly lowered”. For the same molecule, in the series on CBDRx Cherry variety, the camphene result was “significantly lowered”, the total terpene content entry is reported as “significantly lowered”, the α-pinene result was “significantly lowered” and the β-myrcene content result is reported as “significantly lowered”. For the same molecule, in the series on CBDRx Cherry variety, the β-pinene result is on record as “significantly lowered”. Further, in the series with seedling mold, the seedling mold growth result was “inhibited”. In addition, the “seedling mold growth compared to control” value with seedling mold (all concentrations (1 mM, 4.25 mM, 10 mM) in PDA, 72 hours and 10 days) was “showed inhibition”. Moreover, the “efficacy at inhibiting seedling mold, MDJ compared with MeJA” value in the series with seedling mold (setting [5]) is recorded as “more effective”. Moreover, the grey mold growth entry with grey mold is reported as “inhibited”. Also, the “efficacy at inhibiting grey mold, MDJ compared with MeJA” value with grey mold (setting [5]) is listed as “more effective”. The “growth of mold isolated from orange” value in the series with Penicillium spp. is given as “effective at preventing the growth”.

As to `CC/C=C\C[C@H]1C(=O)CC[C@@H]1CC(=O)OC` [MeJA, Methyl Jasmonate], in series [1], the “growth of mold isolated from tomato” value was “effective at preventing the growth”. Further, the “plants deceased in 72 hours” value in series [2] (root drench 15 mM) was “three out of four”. The “plants deceased in 72 hours” value in series [2] (root drench 20 mM) was “three out of four”. In addition, in series [2], the “phytotoxicity to plants in the vegetative stage” value was “phytotoxic”. In series [3], the eucalyptol entry is reported as “Significant increases”, the guaiol entry is recorded as “Significant increases”, the α-bisabolol result was “Significant increases” and the D-Limonene entry is “significantly decreased”. Besides, in series [3], the Linalool entry was “significantly increased” and the cis-B-ocimene result was “significantly decreased”. Further, in series [3] (only with the higher concentration of 7.5 mM), the “β-myrcene, α-pinene, camphene, β-pinene and total terpene content” value is given as “significant reduction”. Also, in the series on CBDRx Cherry variety, the camphene entry is “neither concentration of MeJA significantly altered”, the total terpene content entry is “neither concentration of MeJA significantly altered”, the α-pinene entry was “neither concentration of MeJA significantly altered” and the β-pinene result is “neither concentration of MeJA significantly altered”. Also, the seedling mold growth entry in the series on seedling mold is given as “inhibited”. Besides, the grey mold growth entry with grey mold is listed as “inhibited”. For the same molecule, the “efficacy at inhibiting grey mold, MeJA compared with MDJ” value with grey mold (at 4.25 mM and 10 mM concentrations, 72 hours) is given as “more effective”. For the same molecule, the “growth of mold isolated from orange” value in the series with Penicillium spp. is recorded as “effective at preventing the growth”.
